Values joined by “and” are separate entries in the source; they are usually repeats but may differ in a detail not shown here. Equal entries are not always repeated.
Tests used:
Type in all cases: cell-based, human
A549 cells = test: MTT cell viability assay, A549; settings: for IC50: MTT, 48 h, mean ± SD, n = 3; for A549 Selectivity Index (SI): SI = IC50 (HEK 293)/IC50 (A549)
Description: (§1) Cell viability assay was performed on the human lung cancer (A549) (ATCC CCL-185), human breast cancer (MCF-7) (ATCC-HTB-22), cervical cancer (HeLa) (ATCC-CCL-2), and human embryonic kidney 293 (HEK293) (ATCC-CRL-1573) cell lines, which were purchased from Deutsche Sammlung von Mikroorganismen und Zellkulturen (DSMZ, Braunschweig, Germany). The cells were maintained in Dulbecco’s modified Eagle’s medium (DMEM), supplemented with 10% fetal bovine serum (FBS), 2 mM L-glutamine, 100 U/mL penicillin, and 100 mg/L streptomycin (Biochrom AG, Berlin, Germany) at 37 °C in a humidified atmosphere of 5% CO2.
(§2) The cytotoxic effect was determined by the MTT (3-(4,5-dimethyl-2-thiazolyl)-2,5-diphenyl-2H-tetrazolium bromide) cell viability assay. Cells were seeded at an initial concentration of 1 × 10^5 cells/mL in 96-well microplates. Cells were then treated with different concentrations (0.5, 5, 10, 25, 50, 100 and 200 µM) of the novel synthesized compounds for 48 h. After the incubation period, the formed formazan crystals were dissolved in dimethyl sulfoxide (DMSO), and the optical density (OD) of the compounds was measured at 570 nm using a spectrophotometer (BMG Labtech, Ortenberg, Germany). Cytotoxicity was expressed as an increase in the mean percentage of cytotoxicity relative to the unexposed control ± standard deviation (SD). […] Control values were set at 0% cytotoxicity. IC50 was calculated by fitting the data to a sigmoidal curve using a four-parameter logistic model and was presented as an average of three independent measurements. […] Doxorubicin was used as a positive control. Each sample was tested in triplicate.
(§3) To evaluate the selectivity of the tested compound(s) toward cancer cells over normal cells, the Selectivity Index (SI) was calculated using the following formula:SI = IC50 (normal cells)/IC50 (cancer cells)
(§4) An SI value greater than 2 was considered to indicate selective cytotoxicity, while values below 2 were interpreted as non-selective. Higher SI values reflect greater therapeutic potential due to reduced toxicity toward normal cells.

HeLa cells [1] = test: MTT cell viability assay, HeLa; settings: for IC50: MTT, 48 h, mean ± SD, n = 3; for HeLa Selectivity Index (SI): SI = IC50 (HEK 293)/IC50 (HeLa)
Description: as §1, §2, §3, §4

HEK 293 cells = test: MTT cell viability assay, non-cancerous HEK 293; settings: mean ± SD, n = 3
Description: as §1
The cytotoxic effect was determined by the MTT (3-(4,5-dimethyl-2-thiazolyl)-2,5-diphenyl-2H-tetrazolium bromide) cell viability assay. Cells were seeded at an initial concentration of 1 × 10^5 cells/mL in 96-well microplates. Cells were then treated with different concentrations (0.5, 5, 10, 25, 50, 100 and 200 µM) of the novel synthesized compounds for 48 h. After the incubation period, the formed formazan crystals were dissolved in dimethyl sulfoxide (DMSO), and the optical density (OD) of the compounds was measured at 570 nm using a spectrophotometer (BMG Labtech, Ortenberg, Germany). Cytotoxicity was expressed as an increase in the mean percentage of cytotoxicity relative to the unexposed control ± standard deviation (SD). […] Control values were set at 0% cytotoxicity. IC50 was calculated by fitting the data to a sigmoidal curve using a four-parameter logistic model and was presented as an average of three independent measurements. […] Each sample was tested in triplicate.

MCF-7 cells = test: MTT cell viability assay, MCF-7; settings: for IC50: MTT, 48 h, mean ± SD, n = 3; for MCF-7 Selectivity Index (SI): SI = IC50 (HEK 293)/IC50 (MCF-7)
Description: as §1, §2, §3, §4

HeLa cells [2] = test: Total oxidative status (TOS), HeLa; settings: IC50 concentration of compound, 48 h, H2O2 250 µM positive control, mean ± SD, n = 3
Description: TOS were evaluated using a commercially available kit (Rel Assay Diagnostics®, Gaziantep, Turkey) according to the manufacturer’s instructions. […] The TOS assay quantifies oxidizing agents based on their ability to convert an iron (II) ion chelator complex to iron (III) ions. The results were calibrated against hydrogen peroxide (H2O2, 250 µM) as a positive control for 48 h and expressed as µmol H2O2 equivalents per liter. The analysis was performed in three independent biological replicates (n = 3).

HeLa cells [3] = test: Cell cycle analysis (PI staining, flow cytometry), HeLa; settings: IC50 concentration, 48 h, mean ± SEM, n = 3
Description: Cell cycle distribution was assessed by propidium iodide (PI) staining and flow cytometry. HeLa, MCF-7, and A549 cells were seeded in 6-well plates at a density of 1 × 10^5 cells per well and allowed to attach overnight. […] Following exposure, both adherent and floating cells were collected, washed twice with cold phosphate-buffered saline (PBS, pH 7.4), and fixed overnight in 70% cold ethanol at 4 °C. After fixation, the cells were centrifuged and resuspended in 500 µL of PI/RNase staining solution containing 50 µg/mL PI and 100 µg/mL RNase A (Sigma-Aldrich®, St. Louis, MO, USA), followed by incubation in the dark for 30 min at 37 °C. The stained samples were analyzed using a Muse™ Cell Analyzer (Merck, Millipore, Germany) equipped with a 488 nm excitation laser and a 617 nm emission filter. A minimum of 10,000 events per sample were acquired after exclusion of debris and doublets via FSC-A vs. FSC-H gating. The DNA content histograms were generated automatically, and cell populations were expressed as percentages of G0/G1, S, and G2/M phases using the Muse™ Cell Cycle Analysis Software 1.5.0.0. All assays were conducted in triplicate biological repeats (n = 3), and results were reported as mean ± SEM.

HeLa cells [4] = test: Intracellular GSH/GSSG ratio, HeLa; settings: IC50 concentration of compound, 48 h, H2O2 positive control, mean ± SD, n = 3
Description: Intracellular reduced (GSH) and oxidized (GSSG) glutathione levels were measured using the GSH/GSSG Ratio Detection Assay Kit (Cayman Chemical, Ann Arbor, MI, USA, Cat. No: 703002) according to the manufacturer’s protocol. […] After treatment, cells were washed with cold PBS and lysed with MES buffer provided in the kit.
To prevent oxidation of GSH to GSSG during processing, samples were deproteinized using the supplied metaphosphoric acid solution and neutralized accordingly. Total glutathione and GSSG levels were measured separately by adding the appropriate buffers and reagents to the wells of a 96-well plate, followed by the addition of DTNB recycling reagent and glutathione reductase. Absorbance was read at 405 nm using a microplate reader (BMG Labtech, Germany). The amount of GSH was calculated by subtracting 2 × GSSG from the total glutathione, and the GSH/GSSG ratio was used to assess intracellular redox status.

HeLa cells [5] = test: LDH leakage assay, HeLa; settings: IC50 concentration of compound, 48 h, H2O2 positive control, mean ± SD, n = 3
Description: One hundred microliters of culture medium was transferred to a new 96-well plate. One hundred microliters of LDH reaction solution was added to each well, and absorbance was measured at 490 nm using an ELISA plate reader (BMG Labtech, Ortenberg, Germany) after 30 min.

Compound	IC50 (A549 cells; Homo sapiens, A549)	IC50 (HeLa cells [1]; Homo sapiens, HeLa)	IC50 (MCF-7 cells; Homo sapiens, MCF7)	IC50 (A549 cells)	IC50 (HeLa cells [1])	IC50 (HEK 293 cells; 48 h)	IC50 (MCF-7 cells)	A549 Selectivity Index (SI) (A549 cells)	HeLa Selectivity Index (SI) (HeLa cells [1])	IC50 (HEK 293 cells; Homo sapiens, HEK293, 48 h)	MCF-7 Selectivity Index (SI) (MCF-7 cells)	TOS (HeLa cells [2])	cells in G0/G1 phase (HeLa cells [3])	cells in G2/M phase (HeLa cells [3])	cells in S phase (HeLa cells [3])	GSH/GSSG (HeLa cells [4])	LDH (HeLa cells [5])
2,2′-(5,6-Dichloro-2-oxo-1H-benzimidazole-1,3(2H)-diyl)bis[N′-(furan-2-ylmethylidene) acetohydrazide] [Compound 4]				48 ± 2.77 µM	72 ± 4.16 µM	55 ± 3.17 µM	58 ± 3.35 µM										
CCOC(=O)Cn1c(=O)n(CC(=O)OCC)c2cc(Cl)c(Cl)cc21 [Compound 2, Diethyl 2,2′-(5,6-Dichloro-2-oxo-1H-benzimidazole-1,3(2H)-diyl)diacetate]	60.8 ± 3.51 µM	68.8 ± 3.9 µM	63.2 ± 3.65 µM					1.17	1.04	71.3 ± 4.12 µM	1.13						
NNC(=O)Cn1c(=O)n(CC(=O)NN)c2cc(Cl)c(Cl)cc21 [Compound 3, 2,2′-(5,6-Dichloro-2-oxo-1H-benzimidazole-1,3(2H)-diyl)diacetohydrazide]	63.5 ± 3.6 µM	75.4 ± 4.35 µM	69.8 ± 4.03 µM					1.06	0.89	67.9 ± 3.9 µM	0.97						
O=C(Cn1c(=O)n(CC(=O)N/N=C/c2cccs2)c2cc(Cl)c(Cl)cc21)N/N=C/c1cccs1 [Compound 5]	48.3 ± 2.79 µM	26.1 ± 1.5 µM	50.2 ± 2.9 µM					1.22	2.27	59.4 ± 3.43 µM	1.18	6.9 ± 0.5 µmol H2O2 eq/L and 6.9 ± 0.5 ^a,b µmol H2O2 eq/L	44.5 ± 2.2%	30.0 ± 1.5%	25.5 ± 1.6%	11.8 ± 1.3	24.8 ± 2.1 µU/mL and 24.8 ± 2.1 ^a,b µU/mL
O=C(Cn1c(=O)n(CC(=O)c2ccccc2)c2cc(Cl)c(Cl)cc21)c1ccccc1 [Compound 8, 5,6-Dichloro-1,3-bis(2-oxo-2-phenylethyl)-1,3-dihydro-2H-benzimidazol-2-one]	19.1 ± 1.1 µM	23.9 ± 1.38 µM	21.7 ± 1.25 µM					0.91	0.73	17.5 ± 1.01 µM	0.8						
COc1cccc2c1C(=O)c1c(O)c3c(c(O)c1C2=O)C[C@@](O)(C(=O)CO)C[C@@H]3O[C@H]1C[C@H](N)[C@H](O)[C@H](C)O1 [Doxorubicin, reference compound]	4.3 ± 0.2 µM	3.4 ± 0.19 µM	6.4 ± 0.37 µM														

The next lines start with results.

IC50 (A549 cells; Homo sapiens, A549)	IC50 (HeLa cells [1]; Homo sapiens, HeLa)	IC50 (MCF-7 cells; Homo sapiens, MCF7)	Compound	IC50 (A549 cells)	IC50 (HeLa cells [1])	IC50 (HEK 293 cells; 48 h)	IC50 (MCF-7 cells)	A549 Selectivity Index (SI) (A549 cells)	HeLa Selectivity Index (SI) (HeLa cells [1])	IC50 (HEK 293 cells; Homo sapiens, HEK293, 48 h)	MCF-7 Selectivity Index (SI) (MCF-7 cells)	TOS (HeLa cells [2])	cells in G0/G1 phase (HeLa cells [3])	cells in G2/M phase (HeLa cells [3])	cells in S phase (HeLa cells [3])	GSH/GSSG (HeLa cells [4])	LDH (HeLa cells [5])
21.7 ± 1.25 µM	48.5 ± 2.8 µM	50.8 ± 2.93 µM	O=C(Cn1c(=O)n(CC(=O)NNC(=O)c2cc3ccccc3oc2=O)c2cc(Cl)c(Cl)cc21)NNC(=O)c1cc2ccccc2oc1=O [Compound 12a, N′,N′′′ -(2,2′-(5,6-dichloro-2-oxo-1H-benzo[d]imidazole-1,3(2H)-diyl)bis(acetyl))bis(2-oxo-2H-chromene-3-carbohydrazide)]					2.05	0.91	44.6 ± 2.57 µM	0.87						
35.2 ± 2 µM	13.6 ± 0.78 µM	25.8 ± 1.5 µM	O=C(Cn1c(=O)n(CC(=O)NNC(=O)c2cc3cc(Cl)ccc3oc2=O)c2cc(Cl)c(Cl)cc21)NNC(=O)c1cc2cc(Cl)ccc2oc1=O [Compound 12b, N′,N′′′ -(2,2′-(5,6-dichloro-2-oxo-1H-benzo[d]imidazole-1,3(2H)-diyl)bis(acetyl))bis(6-chloro-2-oxo-2H-chromene-3-carbohydrazide)]					1.39	3.61	49.1 ± 2.83 µM	1.9	8.1 ± 0.6 µmol H2O2 eq/L and 8.1 ± 0.6 ^a,b µmol H2O2 eq/L	41.0 ± 2.1%	35.0 ± 1.7%	24.0 ± 1.4%	10.1 ± 1.1	28.5 ± 2.3 µU/mL and 28.5 ± 2.3 ^a,b µU/mL
52.8 ± 3 µM	54.3 ± 3.13 µM	65.1 ± 3.76 µM	COc1cccc2cc(C(=O)NNC(=O)Cn3c(=O)n(CC(=O)NNC(=O)c4cc5cccc(OC)c5oc4=O)c4cc(Cl)c(Cl)cc43)c(=O)oc12 [Compound 12e, N′,N′′′ -(2,2′-(5,6-dichloro-2-oxo-1H-benzo[d]imidazole-1,3(2H)-diyl)bis(acetyl))bis(8-methoxy-2-oxo-2H-chromene-3-carbohydrazide)]					1.14	1.1	60.2 ± 3.47 µM	0.92						
23.6 ± 1.3 µM	29.1 ± 1.26 µM	26.4 ± 1.52 µM	CCN(CC)c1ccc2cc(C(=O)NNC(=O)Cn3c(=O)n(CC(=O)NNC(=O)c4cc5ccc(N(CC)CC)cc5oc4=O)c4cc(Cl)c(Cl)cc43)c(=O)oc2c1 [Compound 12f]					1.84	1.49	43.5 ± 2.51 µM	1.64						

— paper PMC12735921, “Evaluation of Antiproliferative Activity and Molecular Modeling Studies of Some Novel Benzimidazolone-Bridged Hybrid Compounds” (Pharmaceuticals, 2025)
